Results: patent US10765644B2, “Methods for the treatment of hepatitis C” (priority 2015, dated 2020)

Assays:
[1] = test system: HCV GT1B replicon; assay: HCV replicon assay (antiviral, luciferase / qRT-PCR endpoint); format: cell-based, hepatitis C virus
Procedure: Stable HCV replicons of different genotypes may be used for anti-HCV evaluation.
The HCV replicon antiviral evaluation assay examined the effects of compounds at six serial dilutions. Human interferon alpha-2b (rIFNα-2b) and/or Sofosbuvir were included in each run as a positive control compound.
(§1) Briefly, the replicon cells were plated at 5,000 cells/well into 96-well plates that were dedicated for the analysis of cell numbers (cytotoxicity) or antiviral activity. On the following day, samples were diluted with assay media and added to the appropriate wells. Cells were processed 72 hours later when the cells were still sub-confluent. For the luciferase endpoint assay, HCV replicon levels were assessed as replicon-derived Luc activity. The concentration of drug that reduced cell viability was assessed by the fluorometric CytoTox-1 cell proliferation assay (Promega), (expressed as cell numbers). For the qRT-PCR/TaqMan assay, total RNA was extracted from the replicon cells using RNeasy 96 kit (Qiagen) according to the manufacturer's protocol. Real-time RTPCR/TaqMan assays were performed to measure copy numbers of the replicon RNA and cellular ribosomal RNA. Where applicable EC50 (concentration inhibiting HCV replicon by 50%), EC90 (concentration inhibiting HCV replicon by 90%), CC50 (concentration decreasing cell viability by 50%), CC90 (concentration decreasing cell viability by 90%) and SI (selectivity indices: CC50/EC50 and CC90/EC90) values were derived.

[2] = test system: cell culture-derived HCV (HCVcc); assay: microbe, parasite or virus in culture; format: cell-based, hepatitis C virus
Procedure: (§2) Huh7.5 cells were grown in Dulbecco's modified essential media (DMEM), 10% fetal bovine serum (FBS), 1% penicillin-streptomycin (pen-strep), 1% Non-essential amino acids (NEAA) in a 5% CO2 incubator at 37° C. Huh7.5 cells were seeded at 1×10^4 cells per well into 96-well plates according to Southern Research Institute standard format. Test articles were serially diluted with DMEM plus 5% FBS. The diluted compound in the amount of 50 μl was mixed with equal volume of cell culture-derived HCV (HCVcc), then applied to appropriate wells in the plate. Human interferon alpha-2b (rIFNα-2b) and/or Sofosbuvir were included as a positive control. After 72 hr incubation at 37° C., the cells were lysed for measurement of luciferase activity using Renilla Luciferase Assay System (Promega) according to manufacturer's instruction. The number of cells in each well were determined by CytoTox-1 reagent (Promega). Test articles were tested at 6 serial dilutions in triplicate to derive, if applicable, EC50 and EC90 (concentration inhibiting HCVcc infectivity by 50% and 90%, respectively), CC50 (concentration decreasing cell viability by 50%) and SI (selectivity index: CC50/EC50) values (Table 1).

[3] = in vitro; format: cell-based; conditions: human
Procedure: as §2

[4] = HCV replicon assay, cytotoxicity (CytoTox-1 cell proliferation assay); format: cell-based; conditions: HCV replicon cells, In vitro HCV replicon assay, post infection, read-out: CC50 (concentration decreasing cell viability by 50%)
Procedure: as §1

**Q.** Which results are given for `CC[C@H](c1ccc(O)cc1)[C@@H](CC)c1ccc(O)cc1` [Hexestrol, meso 3,4-bis(4-hydroxyphenyl)hexane]?
**A.** anti-Hepatitis C activity (in words) ([1]; HCV replicon assay): significant anti-Hepatitis C activity; EC50 ([1]; Hepatitis C virus, GT1B, 72 h, read-out: EC50 (concentration inhibiting HCV replicon by 50%)): 10.9 µM; Selectivity index (CC50/EC50) ([1]; In vitro HCV replicon assay): 2.51; anti-Hepatitis C activity (in words) ([2]; Hepatitis C viral infectivity assay): significant anti-Hepatitis C activity; EC50 ([2]; Hepatitis C virus, Huh7.5, 72 h, read-out: EC50 (concentration inhibiting HCVcc infectivity by 50%)): 2.85 µM; Selectivity index (CC50/EC50) ([2]; In vitro HCVcc assay): 14.2; CC50 at 72 h [3]: 50.4 µM; CC50 at 72 h [4]: 27.4 µM
